These results are taken from EPA's ToxValDB 9.5 (doi:10.2903/j.efsa.2016.4574).

One data set has as its system Hypoaspis aculeifer. The settings on record: chronic/long-term; duration: 14 days; mortality.
The test system of the next data set is Folsomia candida. The settings on record: chronic/long-term; duration: 28 days; mortality.
The next data set deals with Tagia sp. Conditions: for LC50: acute, duration: 14 days, mortality; for NOEC: chronic/long-term, duration: 56 days, growth.
Another data set concerns Oncorhynchus mykiss. The settings on record: acute; duration: 96 hours; mortality.
The test system of another data set is Typhlodromus pyri. As to the kind of experiment: LR50; higher = less toxic. Conditions: not reported; no effects.
For the next data set, the system named is Coturnix japonica. The settings on record: acute; oral; mortality.
For the next data set, the system named is Canidae. Conditions: Dog Other, clinical chemistry.
In another data set the test system is Lepomis macrochirus. The settings on record: acute; duration: 96 hours; mortality.
The test system of a further data set is Pimephales promelas. The settings on record: chronic/long-term; duration: 28 days; growth.
The subject of another data set is Daphnia magna. Conditions: chronic/long-term; duration: 21 days.
The next data set deals with Apis mellifera. Conditions: acute, duration: 48 hours, mortality.
A further data set has as its system Colinus virginianus. The settings on record: chronic.
A further data set deals with Oryctolagus sp. Conditions: reproduction developmental; body weight.

The structures appear in SMILES notation. In brackets after ≈: the same amount, converted by molar mass.

As for `C=CCNC(=O)c1c([Si](C)(C)C)sc(C(=O)O)c1C` [Silthiofam allyl acid], the NOEC with Hypoaspis aculeifer, with Folsomia candida and with Tagia sp. was 0.207 mg/kg throughout. The LC50 in the data set with Tagia sp. is greater than 466 mg/kg; with Oncorhynchus mykiss it was greater than 113 µg/mL.
`Cc1c(C(=O)O)sc([Si](C)(C)C)c1C(N)=O` [Silthiofam amide acid]: the NOEC with Hypoaspis aculeifer, in the data set on Folsomia candida and in the data set with Tagia sp. was 0.194 mg/kg in each case. Besides, the LC50 with Tagia sp. was greater than 460 mg/kg; in the data set with Oncorhynchus mykiss it was greater than 110 µg/mL.
Regarding `C=CCNC(=O)c1c([Si](C)(C)C)sc(C)c1C` [Silthiofam], the LR50 in the data set with Typhlodromus pyri was greater than 40 g/ha. Besides, the LD50 in the data set on Coturnix japonica is greater than 2250 mg/kg-day; in the data set on Rattus norvegicus (acute, oral, mortality), greater than 5000 mg/kg; with Apis mellifera (dermal), greater than 100 µg/piece; with Apis mellifera (oral, unspecified) it was greater than 106 µg/piece. For the same molecule, the NOAEL is 5 mg/kg-day with Rattus norvegicus (chronic, duration: 2 years, M, histopathology: neoplastic); 10 mg/kg-day in the data set with Canidae (chronic, duration: 1 years, oral); 10 mg/kg-day in the data set on Canidae (subchronic, duration: 90 days); 20 mg/kg-day with Oryctolagus sp.. For the same molecule, the NOEL in the data set on Rattus norvegicus (reproduction developmental, body weight) was determined as 23.5 mg/kg-day; with Colinus virginianus, 250 mg/kg-day. The LC50 is 11 µg/mL (≈ 41.1 µM) in the data set with Lepomis macrochirus and 66.5 mg/kg with Tagia sp.. The NOEC amounted to 0.89 mg/L with Pimephales promelas, 1.33 mg/kg in the data set with Folsomia candida, 0.47 mg/L in the data set with Daphnia magna and 30 mg/kg in the data set on Tagia sp..
